Source: patent US11504382B2, “Tricyclic inhibitors of Hepatitis B virus” (Antios Therapeutics, Inc., priority 2018, dated 2022)

Tested on: HBV
Assay: HBV inhibition assay in HepAD38 cells (extracellular HBV DNA by direct qPCR)
Format: cell-based, Hepatitis B virus
Details: Hepatitis B virus, 96 hours, 8-point dose-response curve, read-out: HBV inh EC50

Row | Compound | EC50 [nM]
1 | Cc1noc(N2C[C@H]3COc4c(cn(C)c4C(=O)Nc4cc(F)c(F)c(F)c4)S(=O)(=O)N[C@H]3C2)n1 [Example E117, (3aR,10aR)-7-methyl-2-(3-methyl-1,2,4-oxadiazol-5-yl)-N-(3,4,5-trifluorophenyl)-2,3,3a,4,10,10a-hexahydro-1H,7H-dipyrrolo[3,4-b:3′,4′-f][1,4,5]oxathiazocine-8-carboxamide 5,5-dioxide] | < 1000
2 | Cc1nnc(N2C[C@H]3COc4c(cn(C)c4C(=O)Nc4ccc(F)c(C)c4)S(=O)(=O)N[C@H]3C2)o1 [Example E118, (3aR,10aR)—N-(4-fluoro-3-methylphenyl)-7-methyl-2-(5-methyl-1,3,4-oxadiazol-2-yl)-2,3,3a,4,10,10a-hexahydro-1H,7H-dipyrrolo[3,4-b:3′,4′-f][1,4,5]oxathiazocine-8-carboxamide 5,5-dioxide] | < 1000
3 | Cc1nnc(N2C[C@H]3COc4c(cn(C)c4C(=O)Nc4ccc(F)c(Cl)c4)S(=O)(=O)N[C@H]3C2)o1 [Example E119, (3aR,10aR)—N-(3-chloro-4-fluorophenyl)-7-methyl-2-(5-methyl-1,3,4-oxadiazol-2-yl)-2,3,3a,4,10,10a-hexahydro-1H,7H-dipyrrolo[3,4-b:3′,4′-f][1,4,5]oxathiazocine-8-carboxamide 5,5-dioxide] | < 1000
4 | Cc1nnc(N2C[C@H]3COc4c(cn(C)c4C(=O)Nc4cc(F)c(F)c(F)c4)S(=O)(=O)N[C@H]3C2)o1 [Example E120, (3aR,10aR)-7-methyl-2-(5-methyl-1,3,4-oxadiazol-2-yl)-N-(3,4,5-trifluorophenyl)-2,3,3a,4,10,10a-hexahydro-1H,7H-dipyrrolo[3,4-b:3′,4′-f][1,4,5]oxathiazocine-8-carboxamide 5,5-dioxide] | < 1000
5 | CCOC(=O)N1C[C@H]2CSc3c(cn(C)c3C(=O)Nc3ccc(F)c(C)c3)S(=O)(=O)N[C@H]2C1 [Example E121, Ethyl (3aR,10aR)-8-((4-fluoro-3-methylphenyl)carbamoyl)-7-methyl-3a,4,10,10a-tetrahydro-1H,7H-dipyrrolo[3,4-c:3′,4′-g][1,6,2]dithiazocine-2(3H)-carboxylate 5,5-dioxide] | < 1000
6 | CCOC(=O)N1C[C@H]2C[S+]([O-])c3c(cn(C)c3C(=O)Nc3ccc(F)c(C)c3)S(=O)(=O)N[C@H]2C1 (stereo partly drawn) [Example E122, Ethyl (3aR,10aR)-8-((4-fluoro-3-methylphenyl)carbamoyl)-7-methyl-3a,4,10,10a-tetrahydro-1H,7H-dipyrrolo[3,4-c:3′,4′-g][1,6,2]dithiazocine-2(3H)-carboxylate 5,5,9-trioxide] | < 1000
7 | CCOC(=O)N1C[C@H]2CS(=O)(=O)c3c(cn(C)c3C(=O)Nc3ccc(F)c(C)c3)S(=O)(=O)N[C@H]2C1 [Example E123, Ethyl (3aR,10aR)-8-((4-fluoro-3-methylphenyl)carbamoyl)-7-methyl-3a,4,10,10a-tetrahydro-1H,7H-dipyrrolo[3,4-c:3′,4′-g][1,6,2]dithiazocine-2(3H)-carboxylate 5,5,9,9-tetraoxide] | < 1000
8 | Cc1nnc(C(=O)N2C[C@H]3CSc4c(cn(C)c4C(=O)Nc4ccc(F)c(C)c4)S(=O)(=O)N[C@H]3C2)o1 [Example E124, (3aR,10aR)—N-(4-fluoro-3-methylphenyl)-7-methyl-2-(5-methyl-1,3,4-oxadiazole-2-carbonyl)-2,3,3a,4,10,10a-hexahydro-1H,7H-dipyrrolo[3,4-c:3′,4′-g][1,6,2]dithiazocine-8-carboxamide 5,5-dioxide] | < 1000
9 | Cc1cc(NC(=O)c2c3c(cn2C)S(=O)(=O)NC2CN(C(=O)OC(C)(C)C)CC2CO3)ccc1F (stereo not drawn) [Example E145, Trans-Tert-Butyl 8-((4-fluoro-3-methylphenyl)carbamoyl)-7-methyl-3a,4,10,10a-tetrahydro-1H,7H-dipyrrolo[3,4-b:3′,4′-f][1,4,5]oxathiazocine-2(3H)-carboxylate 5,5-dioxide] | < 1000
